Patent US20110046056A1, “APOA-1 PEPTIDE MIMETICS” (priority 2007, published 2011)
Values belong to the molecule of their own block, whether it stands above or below them. Where a SMILES comes first, the peptide text is derived from it. Where no end group is shown, it is not given here. [ ]: non-standard residue; d: D form. Ala(5-hexenyl) = C=CCCCCC[C@H](N)C(=O)O

Tests used:
human red blood cells = assay: Red blood cell (RBC) lysis assay; format: cell-based
Protocol: The RBC lysis assay has been described previously (Kurtz, M. B. et al. (1994); Wang, J. et al., PNAS 104 (18), 7612-7616 (2007)). Basically, human erythrocytes are collected in a vacutainer tube with EDTA from human donors. Two ml of the freshly drawn whole blood is added to 6 ml of sterile saline and gently mixed then centrifuged at 5° C. for 5 minutes at 2000 rpm. The supernatant is discarded and the human red blood cells are resuspended with 6 ml of sterile saline and centrifuged again at 5° C. for 5 minutes at 2000 rpm. This procedure is repeated 2 times. A three percent suspension of the washed red blood cells is prepared by adding 0.3 ml of the washed red blood cells to 9.7 ml of sterile saline. The final concentration of test peptide ranging 160-2.5 (or 150-2.3) μM in 100 μl sterile saline containing 3.2% Me2SO is prepared in 96-well MICROTEST U-bottom plates (BECTON DICKINSON, BD-353227). The RBC lysis is initiated by addition of 5 μl of 3% washed human red blood cell suspension to the each well in the plates. The plates are incubated overnight at room temperature, then centrifuged at 2000 rpm for 5 minutes and read immediately. Hemolysis of red blood cells is indicated by complete or partial clearing (lysis) of the supernatants with either no or a rough RBC pellet in the bottom of the wells. […]

[1] = target: T1, ABCA1 cholesterol transporter protein (Mus musculus, UniProt P41233); assay: ABCA1-dependent cholesterol efflux from RAW mouse macrophage cells (in vitro RCT assay); format: cell-based; conditions: read-out: EC50 in the cholesterol efflux assay (RCT in vitro assay)
T1 construct: endogenous in cells
T1 sequence (P41233 whole entry): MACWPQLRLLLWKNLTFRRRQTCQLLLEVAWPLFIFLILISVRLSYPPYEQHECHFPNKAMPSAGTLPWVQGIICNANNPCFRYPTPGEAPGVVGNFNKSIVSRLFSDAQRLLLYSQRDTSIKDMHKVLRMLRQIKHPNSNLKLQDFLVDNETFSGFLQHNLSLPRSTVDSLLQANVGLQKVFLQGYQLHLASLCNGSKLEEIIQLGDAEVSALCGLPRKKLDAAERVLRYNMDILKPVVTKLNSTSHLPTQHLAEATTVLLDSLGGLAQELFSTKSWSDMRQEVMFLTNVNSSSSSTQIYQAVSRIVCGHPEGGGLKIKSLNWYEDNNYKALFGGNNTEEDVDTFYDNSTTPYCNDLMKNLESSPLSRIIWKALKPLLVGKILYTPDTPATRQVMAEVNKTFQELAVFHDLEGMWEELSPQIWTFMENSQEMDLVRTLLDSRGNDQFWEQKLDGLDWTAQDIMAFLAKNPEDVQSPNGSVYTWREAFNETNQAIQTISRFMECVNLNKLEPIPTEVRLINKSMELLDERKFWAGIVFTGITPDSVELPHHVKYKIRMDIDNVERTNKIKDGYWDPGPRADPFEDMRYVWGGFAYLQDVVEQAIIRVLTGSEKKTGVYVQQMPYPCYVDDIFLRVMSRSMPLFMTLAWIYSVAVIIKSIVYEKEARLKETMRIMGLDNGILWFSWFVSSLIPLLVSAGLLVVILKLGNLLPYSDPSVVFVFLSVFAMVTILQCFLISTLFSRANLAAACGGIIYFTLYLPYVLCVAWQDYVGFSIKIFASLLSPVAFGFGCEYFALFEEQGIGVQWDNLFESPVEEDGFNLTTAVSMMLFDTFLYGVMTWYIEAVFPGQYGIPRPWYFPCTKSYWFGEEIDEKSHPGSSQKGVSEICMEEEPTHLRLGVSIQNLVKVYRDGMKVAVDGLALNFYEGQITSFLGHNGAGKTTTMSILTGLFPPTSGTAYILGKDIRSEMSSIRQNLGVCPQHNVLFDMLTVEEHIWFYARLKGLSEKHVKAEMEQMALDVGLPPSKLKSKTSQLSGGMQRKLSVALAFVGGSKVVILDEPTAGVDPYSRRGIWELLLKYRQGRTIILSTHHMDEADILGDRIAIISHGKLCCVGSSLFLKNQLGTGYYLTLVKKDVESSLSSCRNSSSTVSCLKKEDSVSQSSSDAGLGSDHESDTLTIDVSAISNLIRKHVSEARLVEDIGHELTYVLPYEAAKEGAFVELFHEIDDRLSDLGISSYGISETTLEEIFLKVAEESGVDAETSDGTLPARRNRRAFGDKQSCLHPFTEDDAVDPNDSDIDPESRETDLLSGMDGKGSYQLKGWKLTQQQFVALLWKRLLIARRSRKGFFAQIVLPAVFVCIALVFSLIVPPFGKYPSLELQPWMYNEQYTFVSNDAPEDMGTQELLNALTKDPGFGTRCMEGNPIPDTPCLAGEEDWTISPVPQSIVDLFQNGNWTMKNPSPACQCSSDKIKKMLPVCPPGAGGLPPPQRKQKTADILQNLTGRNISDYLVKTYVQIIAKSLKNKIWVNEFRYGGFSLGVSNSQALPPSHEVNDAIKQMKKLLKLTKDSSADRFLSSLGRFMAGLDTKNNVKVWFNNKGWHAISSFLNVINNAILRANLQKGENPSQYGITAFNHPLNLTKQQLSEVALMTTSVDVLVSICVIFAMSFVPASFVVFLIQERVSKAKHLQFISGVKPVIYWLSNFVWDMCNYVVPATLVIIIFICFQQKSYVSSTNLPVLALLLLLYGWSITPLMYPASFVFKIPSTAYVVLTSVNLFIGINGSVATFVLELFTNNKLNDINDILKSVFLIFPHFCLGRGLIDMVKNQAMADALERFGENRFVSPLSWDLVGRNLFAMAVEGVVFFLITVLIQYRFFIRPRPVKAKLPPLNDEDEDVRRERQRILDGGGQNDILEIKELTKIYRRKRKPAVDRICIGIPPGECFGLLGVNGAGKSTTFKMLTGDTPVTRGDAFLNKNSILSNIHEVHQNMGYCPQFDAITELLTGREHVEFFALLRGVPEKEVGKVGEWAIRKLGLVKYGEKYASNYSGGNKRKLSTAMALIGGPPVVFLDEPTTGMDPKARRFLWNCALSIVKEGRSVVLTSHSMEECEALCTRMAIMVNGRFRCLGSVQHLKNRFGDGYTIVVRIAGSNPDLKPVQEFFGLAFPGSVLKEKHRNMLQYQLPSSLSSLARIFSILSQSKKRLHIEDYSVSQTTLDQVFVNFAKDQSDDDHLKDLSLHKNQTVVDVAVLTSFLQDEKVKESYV
Outline: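 RAW macrophages labelled with ^3H-cholesterol (5 μCi/ml) 24 h, equilibrated overnight serum-free, then given eight-point peptide titrations 24 h with or without 150 μM CPT-cAMP. Percent efflux = medium counts/(medium + lysate); plain-medium efflux subtracted from cAMP value gives ABCA1-dependent efflux, fitted for EC50.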

[2] = test system: atheroma in ApoE-deficient mice; assay: Atheroma volume in ApoE-deficient mice by magnetic resonance imaging; format: in vivo, mouse; conditions: 20 mg per kg subcutaneously once daily; after 5 weeks of treatment; compared to vehicle-treated apoE-deficient mice; MRI
From the text: The ultimate goal of developing these mimetic peptides was for the acute and chronic treatment of atherosclerotic lesions in human patients.

[3] = target: T2, ATP-binding cassette transporter A1 (ABCA1) (mouse, UniProt P41233 1-2261); assay: cell-based or functional assay
T2 sequence (P41233 whole entry): as above

[4] = target: T2, ATP-binding cassette transporter A1 …; assay: cell-based or functional assay; remark: listed apart in the source

- minimum lytic concentration (MLC) (human red blood cells): > 64 µg/mL
Molecule: O=C(N[C@H](CO)[C@H](O)c1ccc([N+](=O)[O-])cc1)C(Cl)Cl [Chloramphenicol]

Molecule: C=CCCCCC[C@H](NC(=O)[C@H](CCC(=O)O)NC(=O)[C@H](CC(N)=O)NC(=O)[C@H](CC(C)C)NC(=O)[C@H](CCCCN)NC(=O)[C@H](CCC(=O)O)NC(=O)[C@H](CCCNC(=N)N)NC(=O)[C@H](CCCCCC=C)NC(=O)[C@H](CCC(=O)O)NC(=O)[C@H](CC(=O)O)NC(=O)[C@H](CC(C)C)NC(=O)[C@@H](NC(=O)[C@@H]1CCCN1C(C)=O)C(C)C)C(=O)N[C@@H](CC(C)C)C(=O)N[C@@H](CCC(=O)O)C(=O)N[C@@H](C)C(=O)N[C@@H](CC(C)C)C(=O)N[C@@H](CCCCN)C(=O)N[C@@H](CCC(N)=O)C(=O)N[C@@H](CCCCN)C(=O)N[C@@H](CC(C)C)C(=O)N[C@@H](CCCCN)C(N)=O [SEQ ID NO 43, PVLDES7HREKLNES7HLEALKQKLK] (Ac-PVLDE[Ala(5-hexenyl)]REKLNE[Ala(5-hexenyl)]LEALKQKLK-NH2; C-terminus assumed)
- EC50 [1]: 300 nM
- atheroma volume [2]: significant reduction

- EC50 in the RCT in vitro assay [3]: 1600 nM
- EC50 in the cholesterol efflux assay [3]: 2800 nM
- ABCA1-dependent cholesterol efflux EC50 [4]: 2000 nM
Molecule: Ac-PVLDEFREKLNE[Ala(5-hexenyl)]LEALKQKLK [CONS[S7H^13]]
